Assay: refractive index (Na D-line) (dimensionless); xn = mol fraction of the nth substance listed
Details: 94.64 kPa, Liquid, Standard Abbe refractometry

CC(=O)O [acetic acid] + O
refractive index
Details	293.15 K	298.15 K	303.15 K
x1 = 0.0322	1.34079	1.34007	1.33927
x1 = 0.0697	1.34792	1.34695	1.34593
x1 = 0.114	1.35489	1.35372	1.3525
x1 = 0.167	1.3609	1.35957	1.35822
x1 = 0.231	1.36583	1.36436	1.36288
x1 = 0.31	1.37062	1.369	1.36736
x1 = 0.412	1.37406	1.37233	1.37058
x1 = 0.545	1.37703	1.37519	1.37331
x1 = 0.629	1.37724	1.37545	1.37349
x1 = 0.729	1.37721	1.3753	1.37335
x1 = 0.85	1.37559	1.37359	1.3716
x1 = 1	1.37224	1.37012	1.36809

CC(=O)O [acetic acid] + Cc1ccccc1
refractive index
Details	293.15 K	298.15 K	303.15 K
x1 = 0.146	1.48448	1.48174	1.47906
x1 = 0.277	1.47082	1.4681	1.46535
x1 = 0.397	1.45878	1.45618	1.45352
x1 = 0.506	1.44593	1.44332	1.44065
x1 = 0.605	1.43372	1.43116	1.42842
x1 = 0.697	1.4212	1.41872	1.41617
x1 = 0.782	1.40891	1.4065	1.40452
x1 = 0.859	1.39681	1.39453	1.39228
x1 = 0.897	1.38731	1.38466	1.38303
x1 = 0.932	1.38235	1.38029	1.3782
x1 = 0.967	1.37721	1.3752	1.37315
x1 = 1	1.37224	1.37012	1.36809
